In the assay the target is T1, CB2 (Nluc-CB2, tsNluc-CB2) (Homo sapiens, UniProt P34972).
T1 construct: gene CNR2; N-terminal cleaved signal peptide, TwinStrep tag and Nluc or tsNluc
The assay is classed as binding. To be noted: Nluc-CB2, 20 µM ligand, DDM/CHAPSO/CHS.

T1 sequence (P34972 whole entry): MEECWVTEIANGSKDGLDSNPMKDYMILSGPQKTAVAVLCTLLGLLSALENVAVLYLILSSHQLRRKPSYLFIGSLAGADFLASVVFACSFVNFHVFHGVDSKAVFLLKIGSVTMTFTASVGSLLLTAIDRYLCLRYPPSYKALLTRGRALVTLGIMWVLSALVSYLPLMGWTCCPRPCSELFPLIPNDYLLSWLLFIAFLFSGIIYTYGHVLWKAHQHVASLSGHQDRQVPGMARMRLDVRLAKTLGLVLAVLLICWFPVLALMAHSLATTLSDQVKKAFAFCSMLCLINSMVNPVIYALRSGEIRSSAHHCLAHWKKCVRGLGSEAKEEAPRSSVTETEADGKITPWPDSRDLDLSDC

For `CCCCCCC(C)(C)c1cc(OC)c([C@@H]2C=C(CO)[C@@H]3C[C@H]2C3(C)C)c(OC)c1` [HU308], the dTm entry is “HU308 and SR144528 also produced appreciable increases in thermostability”. In the case of `Cc1ccc(Cn2nc(C(=O)N[C@@H]3C(C)(C)[C@@H]4CC[C@@]3(C)C4)cc2-c2ccc(Cl)c(C)c2)cc1` [SR144528] it was “HU308 and SR144528 also produced appreciable increases in thermostability”.
